Like-named read-outs stand apart in the source and are kept apart here.
Molecular target: human TRPA1 (Homo sapiens, UniProt O75762)
Assay: FLIPR Ca2+ assay, reduction of hydrogen peroxide activation of TRPA1
Format: cell-based
Parameters: expressed in transfected cells
Conditions: for inhibition at 400 µM / inhibition at 100 µM: read-out: % Reduction of Hydrogen Peroxide TRPA1 Activation
Description: After centrifugation, a pellet of cells was formed in the bottom of the tube separating them from the supernatant solution.
The pelleted cells were re-suspended in 10 ml assay buffer and 90 μl aliquots (˜50,000 cells) per well delivered to a 96-well assay plate containing 10 μl of test compounds ([…]) or buffer control and incubated at room temperature for 30 minutes.

[1] = antagonist 400 μM against 200 μM hydrogen peroxide
[2] = 100 μM antagonist vs 500 μM hydrogen peroxide
[3] = compound 100 μM against 200 μM hydrogen peroxide, Sets 1-4
[4] = antagonist 100 μM against 200 μM hydrogen peroxide
[5] = 400 μM antagonist vs 500 μM hydrogen peroxide

Sequence of human TRPA1 (O75762 whole entry): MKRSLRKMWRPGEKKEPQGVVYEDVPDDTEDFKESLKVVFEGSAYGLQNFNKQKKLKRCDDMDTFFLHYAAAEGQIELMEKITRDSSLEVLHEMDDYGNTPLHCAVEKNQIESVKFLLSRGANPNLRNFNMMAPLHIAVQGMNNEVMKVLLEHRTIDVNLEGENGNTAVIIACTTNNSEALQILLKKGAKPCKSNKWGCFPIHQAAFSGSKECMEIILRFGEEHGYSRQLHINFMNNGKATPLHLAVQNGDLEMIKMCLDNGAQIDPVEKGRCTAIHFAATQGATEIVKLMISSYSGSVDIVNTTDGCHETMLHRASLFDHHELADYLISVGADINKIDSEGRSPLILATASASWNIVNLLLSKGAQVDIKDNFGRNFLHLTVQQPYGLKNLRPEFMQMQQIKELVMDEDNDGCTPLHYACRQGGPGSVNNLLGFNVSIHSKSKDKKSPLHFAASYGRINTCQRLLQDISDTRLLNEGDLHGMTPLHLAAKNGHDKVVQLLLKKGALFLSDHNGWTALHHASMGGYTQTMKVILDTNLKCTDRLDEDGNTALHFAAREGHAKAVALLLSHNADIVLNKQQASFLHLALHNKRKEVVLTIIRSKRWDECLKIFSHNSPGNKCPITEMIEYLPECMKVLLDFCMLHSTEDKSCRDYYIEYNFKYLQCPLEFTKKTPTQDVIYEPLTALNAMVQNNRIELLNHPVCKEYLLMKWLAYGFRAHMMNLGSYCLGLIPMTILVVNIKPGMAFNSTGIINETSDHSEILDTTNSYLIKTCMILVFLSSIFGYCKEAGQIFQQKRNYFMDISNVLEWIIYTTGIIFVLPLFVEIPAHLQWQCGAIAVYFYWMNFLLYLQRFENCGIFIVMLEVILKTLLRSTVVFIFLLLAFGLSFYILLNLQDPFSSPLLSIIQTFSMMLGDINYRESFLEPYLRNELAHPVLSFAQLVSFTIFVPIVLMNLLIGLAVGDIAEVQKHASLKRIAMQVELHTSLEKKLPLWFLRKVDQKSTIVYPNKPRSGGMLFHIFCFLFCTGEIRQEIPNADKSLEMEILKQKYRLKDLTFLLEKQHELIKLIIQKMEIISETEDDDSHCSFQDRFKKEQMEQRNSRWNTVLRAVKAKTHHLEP

Compound | Block of hydrogen peroxide activation of TRPA1 [2] | Average Ca++ Counts [3] [Counts] | inhibition at 100 µM [3] [%] | other results
CCCC1CC(=O)C=C(C)C1 (centres unmarked) [Celery Ketone, 2-Cyclohexen-1-one, 3-methyl-5-propyl-] |  |  |  | inhibition at 400 µM [1]: 56%
CCCC(=O)CC [3-hexanone] | BLOCK ONLY H2O2/TRPA1 | 3381.5 | 52 | 
CC(=O)c1cccnc1 [3-acetylpyridine, 98%, 3-acetylpyridine] | BLOCK ONLY H2O2/TRPA1 | 2981.0 | 57.7 | 
COc1cc(C(=O)O)ccc1O [Vanillic Acid] | BLOCK ONLY H2O2/TRPA1 |  |  | inhibition at 100 µM [4]: 19%
CC(=O)c1ccc(C)o1 [2-acetyl-5-methylfuran] | BLOCK ONLY H2O2/TRPA1 | 2937.0 | 58.3 | 
CCCC=O [butyraldehyde] | BLOCK ONLY H2O2/TRPA1 | 4725.5 | 55.4 | 
CCCCCCCC(C)O (centres unmarked) [2-nonanol] | BLOCK ONLY H2O2/TRPA1 | 3064.5 | 56.5 | 
CCCCCC(=O)OC(C)C [isopropyl hexanoate] | BLOCK ONLY H2O2/TRPA1 | 2862.0 | 59.4 | 
CC12CCC(C1)C(C)(C)C2=O (centres unmarked) [fenchone] | BLOCK ONLY H2O2/TRPA1 | 2761.5 | 60.8 | 
C=C(C)OC(C)=O [acetic acid isopropenyl ester] | BLOCK ONLY H2O2/TRPA1 | 2860.5 | 59.4 | 
CC(=O)CCc1ccc2c(c1)OCO2 [4-benzo[1,3]dioxol-5-yl-butan-2-one] |  |  |  | Average Ca++ Counts: 5431.5 Counts; Block of hydrogen peroxide activation of TRPA1: BLOCK ONLY H2O2/TRPA1; inhibition at 100 µM: 48.7%
CC(=O)C(=O)OCCC(C)C [isoamyl pyruvate] | BLOCK ONLY H2O2/TRPA1 | 2824.0 | 59.9 | 
CCCC1CC(=O)C=C(C)C1 (centres unmarked) |  |  |  | Block of hydrogen peroxide activation of TRPA1 [5]: BLOCK ONLY H2O2/TRPA1
CC(C)CCCC(=O)O [5-methylhexanoic acid] | BLOCK ONLY H2O2/TRPA1 | 4747.0 | 55.2 | 
CCCCCCCCCC(C)O (centres unmarked) [2-undecanol] | BLOCK ONLY H2O2/TRPA1 | 3049.0 | 56.7 | 
CCCC(CCOC(C)=O)SC(C)=O (centres unmarked) [3-acetylsulfanylhexyl acetate] |  |  |  | Block of hydrogen peroxide activation of TRPA1 [5]: BLOCK ONLY H2O2/TRPA1; inhibition at 400 µM [1]: 58%
CCCCC(=O)C(C)C [2-methyl-3-heptanone] | BLOCK ONLY H2O2/TRPA1 | 4994.0 | 52.9 | 
CC(C)CC(=O)OCCc1ccccc1 [phenylethyl isovalerate] | BLOCK ONLY H2O2/TRPA1 | 3291.5 | 53.3 | 
Cc1ccc(C(C)(C)O)cc1 [p-cymen-8-ol] |  |  |  | % Reduction of Hydrogen Peroxide TRPA1 Activation: 50.6%; Average Ca++ Counts: 3476.5 Counts; Block of hydrogen peroxide activation of TRPA1: BLOCK ONLY H2O2/TRPA1
OCc1ccccc1 [phenyl-methanol] | BLOCK ONLY H2O2/TRPA1 | 5244.5 | 50.5 | 
desoxycholic acid |  |  |  | % Reduction of Hydrogen Peroxide TRPA1 Activation: 56.6%; Average Ca++ Counts: 3058.5 Counts; Block of hydrogen peroxide activation of TRPA1: BLOCK ONLY H2O2/TRPA1
O=C1O[C@H]([C@H](O)CO)C([O-])=C1O.[Na+] [sodium erythorbate] |  |  |  | % Reduction of Hydrogen Peroxide TRPA1 Activation: 54.5%; Average Ca++ Counts: 3204.5 Counts; Block of hydrogen peroxide activation of TRPA1: BLOCK ONLY H2O2/TRPA1
CCCCCCC1(C)CCC(=O)O1 (centres unmarked) [γ-Methyl Decalactone] | BLOCK ONLY H2O2/TRPA1 |  |  | % Reduction of Hydrogen Peroxide TRPA1 Activation [4]: 48%

Compound | Block of hydrogen peroxide activation of TRPA1 [2] | Average Ca++ Counts [3] [Counts] | inhibition at 100 µM [3] [%] | other results
C=C(C)c1ccc(C)cc1 [alpha,p-dimethylstyrene] |  | 3735.5 |  | % Reduction of Hydrogen Peroxide TRPA1 Activation [3]: 57.2%
CCC(C)COC(=O)C(C)CC (centres unmarked) [2-methylbutyl 2-methylbutyrate] |  | 2685.5 | 61.9 | 
CC(=O)c1ccc(C)cc1 [4′-methylacetophenone] | BLOCK ONLY H2O2/TRPA1 | 3244.5 | 53.9 | 
CC=C(C=O)c1ccccc1 [2-phenyl-2-butenal] | BLOCK ONLY H2O2/TRPA1 | 3809.0 | 56.3 | 
CCCCCCCCCCCO [1-undecanol] | BLOCK ONLY H2O2/TRPA1 | 3396.0 | 51.8 | 
COC(=O)c1ccc(O)cc1 [methyl 4-hydroxybenzoate] | BLOCK ONLY H2O2/TRPA1 | 4904.5 | 53.7 | 
Cc1ccc(C)c(O)c1 [2,5-dimethylphenol] | BLOCK ONLY H2O2/TRPA1 | 5208.0 | 50.8 | 
CC=CC(=O)O [but-2-enoic acid] | BLOCK ONLY H2O2/TRPA1 | 5193.0 | 51 | 
[Cl][Fe]([Cl])[Cl] [ferric chloride] | BLOCK ONLY H2O2/TRPA1 | 3287.0 |  | % Reduction of Hydrogen Peroxide TRPA1 Activation [3]: 53.3%
CC(=O)OCC(C)(C)Cc1ccccc1 | BLOCK ONLY H2O2/TRPA1 |  |  | 
C[C@H]1CC[C@]2(O1)C(C)(C)CCC[C@]2(C)O [Hydroxydihydrotheaspirane, 1-Oxaspiro[4.5]decan-6-ol, 2,6,10,10-tetramethyl-, (2S,5S,6S)-6-] |  |  |  | % Reduction of Hydrogen Peroxide TRPA1 Activation [1]: 57%
CCC(S)C(C)=O (centres unmarked) [3-mercapto-2-pentanone] | BLOCK ONLY H2O2/TRPA1 | 1255.5 | 82.2 | 
COC(=O)CCCc1ccccc1 [Methyl-4-phenyl butyrate] |  |  |  | Block of hydrogen peroxide activation of TRPA1 [5]: BLOCK ONLY H2O2/TRPA1; % Reduction of Hydrogen Peroxide TRPA1 Activation [1]: 60%
CC1=C(O)C(=O)CC1.O [2-hydroxy-3-methyl-2-cyclopenten-1-one hydrate] |  |  |  | Average Ca++ Counts: 4172.0 Counts; inhibition at 100 µM: 60.6%
O=C(O)CC(O)C(=O)O (centres unmarked) [malic acid] | BLOCK ONLY H2O2/TRPA1 | 5617.5 | 47 | 
CSCCC(C)=O [4-methylthio-2-butanone] |  | 3322.5 | 43.5 | 
CC(C)COC(=O)C(C)C [isobutyl isobutyrate] | BLOCK ONLY H2O2/TRPA1 | 3383.0 | 52 | 
CC(=O)OCCC(C)CCC=C(C)C (centres unmarked) [Citronellyl acetate] |  |  |  | Block of hydrogen peroxide activation of TRPA1 [5]: BLOCK ONLY H2O2/TRPA1; inhibition at 400 µM [1]: 70%
CC(=O)OCC(C)(C)Cc1ccccc1 [alpha,alpha-dimethylhydrocinnamyl acetate] |  | 3367.0 | 52.2 | 
CSCSCSC [2,4,6-trithiaheptane] | BLOCK ONLY H2O2/TRPA1 | 4610.5 | 56.5 | 
CCCCCCCC1CC(C)OC1=O (centres unmarked) [3-Heptyldihydro-5-methyl-2(3H)-furanone] |  |  |  | Block of hydrogen peroxide activation of TRPA1 [5]: BLOCK ONLY H2O2/TRPA1; inhibition at 400 µM [1]: 59%
C=CC(CCCCC)OC(C)=O (centres unmarked) [1-octen-3-yl acetate] | BLOCK ONLY H2O2/TRPA1 | 3228.5 | 54.2 | 
